Source: ChEMBL document CHEMBL3751688, “Synthesis, in vitro antimycobacterial evaluation and docking studies of some new 5,6,7,8-tetrahydropyrido[4',3':4,5]thieno[2,3-d]pyrimidin-4(3H)-one schiff bases” (Bioorg Med Chem Lett, 2016)
≈ marks a conversion by molar mass, not a printed value.

What was measured:
[1] = system: Mycobacterium tuberculosis; assay: Antibacterial activity against Mycobacterium tuberculosis; format: functional
[2] = system: Mycobacterium tuberculosis; assay: Antimycobacterial activity against Mycobacterium tuberculosis H37Rv at 224 uM after 3 days by luciferase reporter phage assay; format: functional; conditions: 72 h
[3] = system: Mycobacterium tuberculosis; assay: Antimycobacterial activity against Mycobacterium tuberculosis H37Rv after 14 days by broth microdilution method; format: functional; conditions: 336 h
Klebsiella pneumoniae = assay: Antibacterial activity against Klebsiella pneumoniae MTCC 109 after 24 hrs by broth microdilution technique; format: functional; conditions: MTCC 109, 24 h
[4] = system: Mycobacterium tuberculosis; assay: Antimycobacterial activity against Mycobacterium tuberculosis H37Rv after 21 days by broth microdilution method; format: functional; conditions: 504 h
Bacillus subtilis = assay: Antibacterial activity against Bacillus subtilis MTCC 441 after 24 hrs by broth microdilution technique; format: functional; conditions: MTCC 441, 24 h
[5] = system: Mycobacterium tuberculosis; assay: Antimycobacterial activity against Mycobacterium tuberculosis H37Rv at 455 uM after 3 days by luciferase reporter phage assay; format: functional; conditions: 72 h
Escherichia coli = assay: Antibacterial activity against Escherichia coli MTCC 443 after 24 hrs by broth microdilution technique; format: functional; conditions: MTCC 443, 24 h
Staphylococcus aureus = assay: Antibacterial activity against Staphylococcus aureus MTCC 96 after 24 hrs by broth microdilution technique; format: functional; conditions: MTCC 96, 24 h
[6] = system: Mycobacterium tuberculosis; assay: Antimycobacterial activity against Mycobacterium tuberculosis H37Rv at 113 uM after 3 days by luciferase reporter phage assay; format: functional; conditions: 72 h
Pantothenate synthetase = target: T1, Pantothenate synthetase (Mycobacterium tuberculosis, UniProt P9WIL5); assay: Inhibition of Mycobacterium tuberculosis pantothenate synthetase
T1 sequence (P9WIL5 whole entry): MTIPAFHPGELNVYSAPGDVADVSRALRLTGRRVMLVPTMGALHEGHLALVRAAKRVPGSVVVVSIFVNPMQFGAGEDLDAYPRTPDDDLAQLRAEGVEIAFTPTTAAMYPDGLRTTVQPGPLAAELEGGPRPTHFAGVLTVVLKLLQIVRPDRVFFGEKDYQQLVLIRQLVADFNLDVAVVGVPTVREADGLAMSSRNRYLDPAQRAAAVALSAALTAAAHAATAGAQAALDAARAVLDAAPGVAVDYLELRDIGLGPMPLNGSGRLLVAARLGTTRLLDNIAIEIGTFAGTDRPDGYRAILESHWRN

[7] = system: Mycobacterium tuberculosis; assay: Antimycobacterial activity against Mycobacterium tuberculosis H37Rv at 470 uM after 3 days by luciferase reporter phage assay; format: functional; conditions: 72 h
[8] = system: Mycobacterium tuberculosis; assay: Antimycobacterial activity against Mycobacterium tuberculosis H37Rv at 235 uM after 3 days by luciferase reporter phage assay; format: functional; conditions: 72 h
[9] = system: Mycobacterium tuberculosis; assay: Antimycobacterial activity against Mycobacterium tuberculosis H37Rv at 117 uM after 3 days by luciferase reporter phage assay; format: functional; conditions: 72 h
[10] = system: Mycobacterium tuberculosis; assay: Antimycobacterial activity against Mycobacterium tuberculosis H37Rv at 111 uM after 3 days by luciferase reporter phage assay; format: functional; conditions: 72 h
[11] = system: Mycobacterium tuberculosis; assay: Antimycobacterial activity against Mycobacterium tuberculosis H37Rv at 223 uM after 3 days by luciferase reporter phage assay; format: functional; conditions: 72 h
[12] = system: Mycobacterium tuberculosis; assay: Antimycobacterial activity against Mycobacterium tuberculosis H37Rv at 446 uM after 3 days by luciferase reporter phage assay; format: functional; conditions: 72 h
[13] = system: Mycobacterium tuberculosis; assay: Antimycobacterial activity against Mycobacterium tuberculosis H37Rv at 465 uM after 3 days by luciferase reporter phage assay; format: functional; conditions: 72 h
[14] = system: Mycobacterium tuberculosis; assay: Antimycobacterial activity against Mycobacterium tuberculosis H37Rv at 116 uM after 3 days by luciferase reporter phage assay; format: functional; conditions: 72 h
[15] = system: Mycobacterium tuberculosis; assay: Antimycobacterial activity against Mycobacterium tuberculosis H37Rv at 232 uM after 3 days by luciferase reporter phage assay; format: functional; conditions: 72 h
[16] = system: Mycobacterium tuberculosis; assay: Antimycobacterial activity against Mycobacterium tuberculosis H37Rv at 123 uM after 3 days by luciferase reporter phage assay; format: functional; conditions: 72 h
[17] = system: Mycobacterium tuberculosis; assay: Antimycobacterial activity against Mycobacterium tuberculosis H37Rv at 492 uM after 3 days by luciferase reporter phage assay; format: functional; conditions: 72 h
[18] = system: Mycobacterium tuberculosis; assay: Antimycobacterial activity against Mycobacterium tuberculosis H37Rv at 246 uM after 3 days by luciferase reporter phage assay; format: functional; conditions: 72 h

| SMILES | MIC [3] | MIC (Klebsiella pneumoniae) | MIC [4] | MIC (Bacillus subtilis) | MIC (Escherichia coli) | MIC (Staphylococcus aureus) | other results |
| --- | --- | --- | --- | --- | --- | --- | --- |
| Cc1nc2ccccn2c1C(=O)N/N=C/c1ccc(C(F)(F)F)cc1 |  |  |  |  |  |  | MIC [1]: 9.01 µM (≈ 3.12 µg/mL) |
| Cc1nc2sc3c(c2c(=O)n1/N=C/c1ccc(C#N)cc1)CCN(Cc1ccccc1)C3 | 20 µM (≈ 8.79 µg/mL) | 70 µM (≈ 30.8 µg/mL) | 20 µM (≈ 8.79 µg/mL) | 34 µM (≈ 14.9 µg/mL) | 15 µM (≈ 6.59 µg/mL) | 34 µM (≈ 14.9 µg/mL) | inhibition at 224 µM [2]: 6.5%; inhibition at 455 µM [5]: 9.8%; inhibition at 113 µM [6]: 0% |
| Cc1nc2sc3c(c2c(=O)n1/N=C/c1ccccc1)CCN(Cc1ccccc1)C3 |  | 149 µM (≈ 61.8 µg/mL) |  | 74 µM (≈ 30.7 µg/mL) | 74 µM (≈ 30.7 µg/mL) | 74 µM (≈ 30.7 µg/mL) |  |
| O=c1c2c3c(sc2ncn1/N=C/c1ccccc1[N+](=O)[O-])CN(Cc1ccccc1)CC3 |  | 139 µM (≈ 61.9 µg/mL) |  | 139 µM (≈ 61.9 µg/mL) | 139 µM (≈ 61.9 µg/mL) | 139 µM (≈ 61.9 µg/mL) |  |
| NC(=O)c1c(NC(=O)c2ccc([N+](=O)[O-])s2)sc2c1CCN(Cc1ccccc1)C2 |  |  |  |  |  |  | IC50 (Pantothenate synthetase): 1130 nM |
| Cc1nc2sc3c(c2c(=O)n1/N=C/c1cccs1)CCN(Cc1ccccc1)C3 |  | 297 µM (≈ 125 µg/mL) |  | 297 µM (≈ 125 µg/mL) | 297 µM (≈ 125 µg/mL) | 297 µM (≈ 125 µg/mL) |  |
| O=c1c2c3c(sc2ncn1/N=C/c1ccc(O)cc1)CN(Cc1ccccc1)CC3 |  | 149 µM (≈ 62.1 µg/mL) |  | 149 µM (≈ 62.1 µg/mL) | 149 µM (≈ 62.1 µg/mL) | 149 µM (≈ 62.1 µg/mL) |  |
| O=c1c2c3c(sc2ncn1/N=C/c1ccc(F)cc1)CN(Cc1ccccc1)CC3 |  | 147 µM (≈ 61.5 µg/mL) |  | 73 µM (≈ 30.6 µg/mL) | 73 µM (≈ 30.6 µg/mL) | 73 µM (≈ 30.6 µg/mL) |  |
| Cc1nc2sc3c(c2c(=O)n1/N=C/c1ccccc1[N+](=O)[O-])CCN(Cc1ccccc1)C3 |  | 135 µM (≈ 62 µg/mL) |  | 135 µM (≈ 62 µg/mL) | 135 µM (≈ 62 µg/mL) | 135 µM (≈ 62 µg/mL) |  |
| N#Cc1ccc(/C=N/n2cnc3sc4c(c3c2=O)CCN(Cc2ccccc2)C4)cc1 | 9 µM (≈ 3.83 µg/mL) | 72 µM (≈ 30.6 µg/mL) | 9 µM (≈ 3.83 µg/mL) | 35 µM (≈ 14.9 µg/mL) | 16 µM (≈ 6.81 µg/mL) | 35 µM (≈ 14.9 µg/mL) | inhibition at 470 µM [7]: 69.9%; inhibition at 235 µM [8]: 9.7%; inhibition at 117 µM [9]: 0% |
| O=c1c2c3c(sc2ncn1/N=C/c1ccc(Cl)cc1)CN(Cc1ccccc1)CC3 | 20 µM (≈ 8.7 µg/mL) | 71 µM (≈ 30.9 µg/mL) | 20 µM (≈ 8.7 µg/mL) | 34 µM (≈ 14.8 µg/mL) | 16 µM (≈ 6.96 µg/mL) | 34 µM (≈ 14.8 µg/mL) |  |
| COc1cc(/C=N/n2c(C)nc3sc4c(c3c2=O)CCN(Cc2ccccc2)C4)cc(OC)c1OC |  | 248 µM (≈ 125 µg/mL) |  | 248 µM (≈ 125 µg/mL) | 248 µM (≈ 125 µg/mL) | 248 µM (≈ 125 µg/mL) |  |
| COc1ccc(/C=N/n2c(C)nc3sc4c(c3c2=O)CCN(Cc2ccccc2)C4)cc1 |  | 69 µM (≈ 30.7 µg/mL) |  | 33 µM (≈ 14.7 µg/mL) | 33 µM (≈ 14.7 µg/mL) | 69 µM (≈ 30.7 µg/mL) |  |
| O=c1c2c3c(sc2ncn1/N=C/c1ccccc1)CN(Cc1ccccc1)CC3 |  | 155 µM (≈ 62.1 µg/mL) |  | 77 µM (≈ 30.8 µg/mL) | 77 µM (≈ 30.8 µg/mL) | 77 µM (≈ 30.8 µg/mL) |  |
| Cc1nc2sc3c(c2c(=O)n1/N=C/c1ccc(O)cc1)CCN(Cc1ccccc1)C3 |  | 144 µM (≈ 62 µg/mL) |  | 144 µM (≈ 62 µg/mL) | 144 µM (≈ 62 µg/mL) | 144 µM (≈ 62 µg/mL) |  |
| Cc1nc2sc3c(c2c(=O)n1/N=C/c1ccc(Cl)cc1)CCN(Cc1ccccc1)C3 | 8 µM (≈ 3.59 µg/mL) | 69 µM (≈ 31 µg/mL) | 8 µM (≈ 3.59 µg/mL) | 33 µM (≈ 14.8 µg/mL) | 15 µM (≈ 6.73 µg/mL) | 33 µM (≈ 14.8 µg/mL) | inhibition at 111 µM [10]: 29.6%; inhibition at 223 µM [11]: 40.8%; inhibition at 446 µM [12]: 99.8% |
| COc1ccc(/C=N/n2cnc3sc4c(c3c2=O)CCN(Cc2ccccc2)C4)cc1 | 20 µM (≈ 8.61 µg/mL) | 72 µM (≈ 31 µg/mL) | 20 µM (≈ 8.61 µg/mL) | 34 µM (≈ 14.6 µg/mL) | 16 µM (≈ 6.89 µg/mL) | 34 µM (≈ 14.6 µg/mL) | inhibition at 465 µM [13]: 16.9%; inhibition at 116 µM [14]: 0%; inhibition at 232 µM [15]: 15% |
| Cc1nc2sc3c(c2c(=O)n1/N=C/c1ccc(F)cc1)CCN(Cc1ccccc1)C3 |  | 71 µM (≈ 30.7 µg/mL) |  | 71 µM (≈ 30.7 µg/mL) | 71 µM (≈ 30.7 µg/mL) | 71 µM (≈ 30.7 µg/mL) |  |
| Cc1nc2sc3c(c2c(=O)n1/N=C/c1ccc(Cl)cc1Cl)CCN(Cc1ccccc1)C3 |  | 64 µM (≈ 30.9 µg/mL) |  | 15 µM (≈ 7.25 µg/mL) | 64 µM (≈ 30.9 µg/mL) | 64 µM (≈ 30.9 µg/mL) |  |
| O=c1c2c3c(sc2ncn1/N=C/c1ccc(Cl)cc1Cl)CN(Cc1ccccc1)CC3 |  | 66 µM (≈ 31 µg/mL) |  | 32 µM (≈ 15 µg/mL) | 66 µM (≈ 31 µg/mL) | 66 µM (≈ 31 µg/mL) |  |
| Cc1nc2sc3c(c2c(=O)n1/N=C/c1ccco1)CCN(Cc1ccccc1)C3 |  | 153 µM (≈ 61.9 µg/mL) |  | 309 µM (≈ 125 µg/mL) | 309 µM (≈ 125 µg/mL) | 309 µM (≈ 125 µg/mL) |  |
| O=c1c2c3c(sc2ncn1/N=C/c1cccs1)CN(Cc1ccccc1)CC3 | 22 µM (≈ 8.94 µg/mL) | 150 µM (≈ 61 µg/mL) | 22 µM (≈ 8.94 µg/mL) | 150 µM (≈ 61 µg/mL) | 150 µM (≈ 61 µg/mL) | 36 µM (≈ 14.6 µg/mL) | inhibition at 123 µM [16]: 0%; inhibition at 492 µM [17]: 0%; inhibition at 246 µM [18]: 0% |
| COc1cc(/C=N/n2cnc3sc4c(c3c2=O)CCN(Cc2ccccc2)C4)cc(OC)c1OC |  | 255 µM (≈ 125 µg/mL) |  | 255 µM (≈ 125 µg/mL) | 255 µM (≈ 125 µg/mL) | 255 µM (≈ 125 µg/mL) |  |
| O=c1c2c3c(sc2ncn1/N=C/c1ccco1)CN(Cc1ccccc1)CC3 |  | 158 µM (≈ 61.7 µg/mL) |  | 158 µM (≈ 61.7 µg/mL) | 158 µM (≈ 61.7 µg/mL) | 158 µM (≈ 61.7 µg/mL) |  |
| CC[C@@H](CO)NCCN[C@@H](CC)CO [ETHAMBUTOL] | 4 µM (≈ 0.817 µg/mL) |  | 4 µM (≈ 0.817 µg/mL) |  |  |  |  |
| NNC(=O)c1ccncc1 [ISONIAZID] | 0.28 µM (≈ 0.0384 µg/mL) |  | 0.28 µM (≈ 0.0384 µg/mL) |  |  |  |  |
| CO[C@H]1/C=C/O[C@@]2(C)Oc3c(C)c(O)c4c(O)c(c(/C=N/N5CCN(C)CC5)c(O)c4c3C2=O)NC(=O)/C(C)=C\C=C\[C@H](C)[C@H](O)[C@@H](C)[C@@H](O)[C@@H](C)[C@H](OC(C)=O)[C@@H]1C [RIFAMPIN] | 0.09 µM (≈ 0.0741 µg/mL) |  | 0.09 µM (≈ 0.0741 µg/mL) |  |  |  |  |
| CN[C@@H]1[C@H](O[C@H]2[C@H](O[C@H]3[C@H](O)[C@@H](O)[C@H](N=C(N)N)[C@@H](O)[C@@H]3N=C(N)N)O[C@@H](C)[C@]2(O)C=O)O[C@@H](CO)[C@H](O)[C@H]1O [STREPTOMYCIN] | 2 µM (≈ 1.16 µg/mL) | < 1 µM | 2 µM (≈ 1.16 µg/mL) | < 1 µM | < 1 µM | < 1 µM |  |
